Results as given in patent publication US9181253B2 (The United States of America, as represented by the …, priority 2008, dated 2015).
“And” between values parts separate entries of the source, which are not always exact repeats. Identical values can stand only once. Marks after values point to notes of the source that are not given here.

Assays:
[1] = biological target: human A3AR (Homo sapiens (Human), UniProt P0DMS8); test: [35S]GTPγS binding assay, membranes of CHO cells expressing human A3AR; type: biochemical; settings: stimulation measured by [35S]GTPγS binding assay
[2] = biological target: human A2A receptors (Homo sapiens (Human), UniProt P29274); test: Binding assay at human A2A receptors (Example 2); settings: HEK cells expressing human A2AAR; radioligand [3H]CGS21680; n = 3-5; read-out: Affinity (Ki, nM) A2A
[3] = biological target: human A1 receptors (Homo sapiens (Human), UniProt P30542); test: Binding assay at human A1 receptors (Example 2); settings: CHO cells expressing human A1AR; radioligand [3H]CCPA or [3H]R-PIA; n = 3-5; read-out: Affinity (Ki, nM) A1
[4] = tested on: mice; test: Minimal behavioral toxicity test, rotorod procedure; settings: i.p., measured at 1 h post injection
[5] = tested on: MES seizures in mice; test: Maximal electroshock (MES) seizure test; type: in vivo; settings: i.p., 1 mg/kg
Method: The electrical tests used were the maximal electroshock (MES) seizure test, the 6 Hz minimal clonic seizure test, and the corneal kindled mouse test. The chemical test was the s.c. metrazol seizure tests. Time of peak effect (TPE) is deduced from data generated in initial qualitative test procedures. Five groups of 4 animals each are administered the test compound, and each group is tested at one of five different time intervals: ¼, ½, 1, 2 and 4 h. The time point at which the compound produces the most activity/toxicity was chosen as TPE.
(§1) For the MES and 6 Hz tests, a drop of anesthetic/electrolyte solution (0.5% tetracaine hydrochloride in 0.9% saline) was applied to the eyes of each animal prior to placement of the corneal electrodes. The electrical stimulus in the MES test was 50 mA, 60 Hz, for mice. Abolition of the hindleg tonic extensor component of the seizure was used as the endpoint.

[6] = tested on: seizures induced by 6 Hz corneal stimulation in mice; test: 6 Hz minimal clonic seizure test; type: in vivo; settings: mice, i.p., measured at 1 h post injection
Method: as §1
The ability of the test substance to prevent seizures induced by 6 Hz corneal stimulation (32 mA, 3 sec duration) in mice was evaluated at a convulsive current that evokes a seizure in 97% of the population tested (CC97). Six Hz seizures are characterized by a minimal clonic phase that is followed by stereotyped, automatistic behaviors described originally as being similar to the aura of human patients with partial seizures. Toman, J. E. et al., Tex. Rep.
Animals not displaying this behavior were considered protected.

[7] = tested on: s.c. metrazol seizures in mice; test: s.c. metrazol (scMET) seizure test; type: in vivo; settings: i.p., 1 mg/kg
Excerpt: In vivo anticonvulsant activity was established by both electrical and chemoconvulsant seizure tests which have been described previously. White, H. S., et al., Ital. J. Neurol. […] White, H. S. et al., Antiepileptic Drugs ([…].; Meldrum, B. S. ed), 1995, pp 99-110, Raven Press, New York.; and Smith, M., et al., Neurotherapeutics 2007, 4, 12-17. The electrical tests used were the maximal electroshock (MES) seizure test, the 6 Hz minimal clonic seizure test, and the corneal kindled mouse test. The chemical test was the s.c. metrazol seizure tests. Time of peak effect (TPE) is deduced from data generated in initial qualitative test procedures. […] The time point at which the compound produces the most activity/toxicity was chosen as TPE.

[8] = biological target: T1, hA1AR (Homo sapiens (Human), UniProt P30542); test: Radioligand membrane binding at hA1AR (Example 6); settings: CHO cells expressing hA1AR; [3H]R-PIA; n = 3-5; read-out: Affinity Ki, nM A1
Method: (§2) In addition, 800 μg/mL Geneticin and 500 μg/mL hygromycin were added to the A2A media and to the A1 and A3 media, respectively. […] The concentration of protein was determined using a BCA Protein Assay Kit from Pierce Biotechnology (Rockford, Ill.).
(§3) Radioligand binding assays at A1, A2A, and A3ARs were performed according to the procedures described previously.
(§4) All of the filters were washed 3 times with Tris-HCl, pH 7.5. […] Filters for A3AR binding were counted using a PerkinElmer Cobra II γ-counter.
(§5) Binding and functional parameters were calculated using Prism 5.0 software (GraphPAD, San Diego, Calif., USA). IC50 values obtained from competition curves were converted to Ki values using the Cheng-Prusoff equation. Data were expressed as mean±standard error.

[9] = biological target: T1, hA1AR; test: A1AR functional assay, inhibition of forskolin-stimulated cyclic AMP production in AR-transfected CHO cells; type: cell-based; settings: for inhibition at 10 µM: CHO, read-out: % Inhibition, cyclic AMP A1
[10] = biological target: hA3AR (Homo sapiens (Human), UniProt P0DMS8); test: Radioligand membrane binding at hA3AR (Example 6); settings: CHO cells expressing hA3AR; [125I]I-AB-MECA; n = 3-5; read-out: Affinity Ki, nM A3
[11] = biological target: hA2AAR (Homo sapiens (Human), UniProt P29274); test: Radioligand membrane binding at hA2AAR (Example 6); settings: for Ki: HEK293 cells expressing hA2AAR, [3H]CGS21680, n = 3-5, read-out: Affinity Ki, nM A2A
Method: as §2, §3, §4, §5

Sequence of human A3AR (P0DMS8 whole entry): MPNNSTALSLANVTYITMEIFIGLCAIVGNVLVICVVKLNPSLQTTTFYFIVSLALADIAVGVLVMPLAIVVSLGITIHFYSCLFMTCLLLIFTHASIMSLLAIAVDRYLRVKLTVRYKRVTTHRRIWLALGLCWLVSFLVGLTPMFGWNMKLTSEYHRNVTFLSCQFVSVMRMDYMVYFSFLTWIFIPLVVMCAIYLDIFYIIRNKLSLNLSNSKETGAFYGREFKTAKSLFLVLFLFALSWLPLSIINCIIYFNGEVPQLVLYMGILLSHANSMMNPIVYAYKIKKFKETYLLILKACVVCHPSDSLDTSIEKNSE
Sequence of hA3AR (P0DMS8 whole entry): as above
T1 sequence (P30542 whole entry): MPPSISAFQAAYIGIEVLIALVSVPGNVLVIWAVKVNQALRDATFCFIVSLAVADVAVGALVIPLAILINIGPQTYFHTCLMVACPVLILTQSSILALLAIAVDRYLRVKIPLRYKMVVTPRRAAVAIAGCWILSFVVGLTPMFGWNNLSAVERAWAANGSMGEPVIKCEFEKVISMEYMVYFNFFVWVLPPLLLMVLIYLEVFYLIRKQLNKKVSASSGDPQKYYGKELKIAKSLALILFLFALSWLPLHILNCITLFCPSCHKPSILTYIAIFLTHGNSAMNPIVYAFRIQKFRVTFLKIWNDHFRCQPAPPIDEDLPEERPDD
Sequence of human A1 receptors (P30542 whole entry): as above
Sequence of hA2AAR (P29274 whole entry): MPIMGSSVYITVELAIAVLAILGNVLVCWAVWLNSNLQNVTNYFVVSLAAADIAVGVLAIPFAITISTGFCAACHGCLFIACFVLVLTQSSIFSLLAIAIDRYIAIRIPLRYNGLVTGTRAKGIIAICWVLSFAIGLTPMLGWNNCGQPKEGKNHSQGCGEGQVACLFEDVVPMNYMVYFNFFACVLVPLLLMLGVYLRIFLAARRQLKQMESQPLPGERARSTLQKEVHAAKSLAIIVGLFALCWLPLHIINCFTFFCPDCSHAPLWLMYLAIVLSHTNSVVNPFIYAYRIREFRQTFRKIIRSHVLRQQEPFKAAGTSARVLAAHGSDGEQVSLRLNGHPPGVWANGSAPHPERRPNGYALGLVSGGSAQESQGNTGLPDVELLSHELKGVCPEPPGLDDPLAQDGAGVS
Sequence of human A2A receptors (P29274 whole entry): as above

| Ki [8] | inhibition at 10 µM [9] | Ki [10] | Ki [11] | Compound | other results |
| --- | --- | --- | --- | --- | --- |
| – | – | – | – | O[C@@H]1[C@H](O)[C@@H]2C[C@@H]2[C@H]1n1cnc2c(NCc3cccc(Cl)c3)nc(Cl)nc21 [Compound 8b, (1′R,2′R,3′S,4′R,5′S)-4′-[2-Chloro-6-(3-chlorobenzylamino)purine]-2′,3′-O-dihydroxybicyclo-[3.1.0]hexane] | % Efficacy A3 [1]: 2.9 ± 3.7%; Ki [2]: 4510 ± 910 nM; Ki [3]: 3070 ± 1500 nM |
| – | – | – | – | OC[C@H]1O[C@@H](n2cnc3c(NC4CCCC4)nc(Cl)nc32)[C@H](O)[C@@H]1O [Compound 235b, 2-chloro-N^6-cyclopentyladenosine] | Behavioral toxicity TD50 [4]: 0.84 mg/kg and 0.84^c mg/kg; MES model, number of animals protected from convulsions [5]: 1 out of 4 at; ED50 ([6]; Mus musculus, ip, read-out: 6 Hz model ED50): 0.12 mg/kg; 6 Hz model ED50 [6]: 0.12^c mg/kg; scMET model, number of animals protected from convulsions [7]: 1 out of 4 |
| – | – | – | – | COc1ccc(OC)c(CNc2nc(Cl)nc3c2ncn3[C@H]2[C@H](O)[C@H](O)[C@@H]3C[C@@H]32)c1 [Compound 11b, (1′R,2′R,3′S,4′R,5′S)-4′-[2-Chloro-6-(2,5-dimethoxybenzylamino)purine]-2′,3′-O-dihydroxybicyclo-[3.1.0]hexane] | % Efficacy A3 [1]: 4.6 ± 3.8%; Ki [2]: 2620 ± 730 nM |
| – | – | – | – | O[C@@H]1[C@H](O)[C@@H]2C[C@@H]2[C@H]1n1cnc2c(N[C@@H]3C[C@H]3c3ccccc3)nc(Cl)nc21 (relative stereo) [Compound 13b, (1′R,2′R,3′S,4′R,5′S)-4′-[2-Chloro-6-(trans-2-phenylcyclopropylamino)purine]-2′,3′-O-dihydroxybicyclo-[3.1.0]hexane] | % Efficacy A3 [1]: 9.7 ± 4.1% |
| 170 ± 20 nM | 24 ± 5.2% | 550 ± 50 nM | 2550 ± 170 nM | O[C@@H]1[C@H](O)[C@@H]2C[C@@H]2[C@H]1n1cnc2c(N[C@@H](CC3CC3)C3CC3)nc(Cl)nc21 [Compound 219, (1R,2R,3S,4R,5S)-4-(2-Chloro-6-((S)-1,2-dicyclopropylethylamino)-9H-purin-9-yl)bicyclo[3.1.0]hexane-2,3-diol] | – |
| – | – | – | – | COc1ccc(O)c(CNc2nc(Cl)nc3c2ncn3[C@H]2[C@H](O)[C@H](O)[C@@H]3C[C@@H]32)c1 [Compound 12b, (1′R,2′R,3′S,4′R,5′S)-4′-[2-Chloro-6-(2-hydroxy-5-methoxybenzylamino)purine]-2′,3′-O-dihydroxybicyclo-[3.1.0]hexane] | % Efficacy A3 [1]: 0.4 ± 1.3%; Ki [2]: 6870 ± 1440 nM; Ki [3]: 1110 ± 300 nM |
| 72.2 ± 16.4 nM | 50.5 ± 6.4% | 12 ± 1 nM | – | CC(C)Nc1nc(Cl)nc2c1ncn2[C@H]1[C@H](O)[C@H](O)[C@@H]2C[C@@H]21 [Compound 117, (1R,2R,3S,4R,5S)-4-(2-Chloro-6-(isopropylamino)-9H-purin-9-yl)bicyclo[3.1.0]hexane-2,3-diol] | (% inhibition) A2A ([11]; percent inhibition of radioligand binding at 10 μM): (39%) |
| – | – | – | – | O[C@@H]1[C@H](O)[C@@H]2C[C@@H]2[C@H]1n1cnc2c(NCc3cccc(Br)c3)nc(Cl)nc21 [Compound 9b, (1′R,2′R,3′S,4′R,5′S)-4′-[2-Chloro-6-(3-bromobenzylamino)purine]-2′,3′-O-dihydroxybicyclo-[3.1.0]hexane] | Ki [3]: 1760 ± 1010 nM |
| 490 ± 90 nM | 18.4 ± 2.1% | 1760 ± 210 nM | 4840 ± 400 nM | O[C@@H]1[C@H](O)[C@@H]2C[C@@H]2[C@H]1n1cnc2c(N[C@H](CC3CC3)C3CC3)nc(Cl)nc21 [Compound 218, (1R,2R,3S,4R,5S)-4-(2-Chloro-6-((R)-1,2-dicyclopropylethylamino)-9H-purin-9-yl)bicyclo[3.1.0]hexane-2,3-diol] | – |
| 76 ± 8 nM | 33.8 ± 2.3% | 780 ± 80 nM | 1570 ± 180 nM | CC(C)[C@@H](Nc1nc(Cl)nc2c1ncn2[C@H]1[C@H](O)[C@H](O)[C@@H]2C[C@@H]21)C1CC1 [Compound 214, (1R,2R,3S,4R,5S)-4-(2-Chloro-6-((R)-1-cyclopropyl-2-methyl-propylamino)-9H-purin-9-yl)bicyclo[3.1.0]hexane-2,3-diol] | – |
| 350 ± 90 nM | 68.1 ± 4.4% | 160 ± 42 nM | 3140 ± 450 nM | Nc1nc(Cl)nc2c1ncn2[C@H]1[C@H](O)[C@H](O)[C@@H]2C[C@@H]21 [Compound 107, (1R,2R,3S,4R,5S)-4-(6-Amino-2-chloro-9H-purin-9-yl)-bicyclo[3.1.0]hexane-2,3-diol] | – |

| Compound | Ki [8] | inhibition at 10 µM [9] | Ki [10] | Ki [11] | other results |
| --- | --- | --- | --- | --- | --- |
| O[C@@H]1[C@H](O)[C@@H]2C[C@@H]2[C@H]1n1cnc2c(N[C@@H](C3CCC3)C3CC3)nc(Cl)nc21 [Compound 216, (1R,2R,3S,4R,5S)-4-(2-Chloro-6-((R)-cyclopropylcyclobutylmethylamino)-9H-purin-9-yl)bicyclo[3.1.0]hexane-2,3-diol] | 270 ± 60 nM | – | 2930 ± 480 nM | 5470 ± 300 nM | % Inhibition, cyclic AMP A1 ([9]; maximal efficacy at 10 μM, in comparison to effect (100%) of full agonist CPA at 10 μM, n = 3-5): 33.4 ± 5.2% |
| CC[C@H](Nc1nc(Cl)nc2c1ncn2[C@H]1[C@H](O)[C@H](O)[C@@H]2C[C@@H]21)C1CC1 [Compound 213, (1R,2R,3S,4R,5S)-4-(2-Chloro-6-((S)-1-cyclopropylpropylamino)-9H-purin-9-yl)bicyclo[3.1.0]hexane-2,3-diol] | 150 ± 10 nM | 57.9 ± 1.1% | 780 ± 70 nM | 4910 ± 430 nM | – |
| CC[C@@H](Nc1nc(Cl)nc2c1ncn2[C@H]1[C@H](O)[C@H](O)[C@@H]2C[C@@H]21)C1CC1 [Compound 212, (1R,2R,3S,4R,5S)-4-(2-Chloro-6-((R)-1-cyclopropylpropylamino)-9H-purin-9-yl)bicyclo[3.1.0]hexane-2,3-diol] | 68.1 ± 5 nM | 37.3 ± 4.3% | 150 ± 2 nM | 3610 ± 500 nM | – |
